Results reported in article PMC12067350, “Discovery of Thieno[3,2‑b]pyridine-5-carboxamide and 2,3-Difluorobenzamide Negative Allosteric Modulators of Metabotropic Glutamate Receptor Subtype 5” (ACS Medicinal Chemistry Letters, 2025).
Entries after “also recorded” stand apart in the source; their conditions may differ. Read-outs that look alike come from different tables or passages of the source.

Key:
[1] = molecular target: T1, human mGlu5 (Homo sapiens, UniProt P41594); experiment: Calcium mobilization assay in human mGlu5-HEK293A cells (NAM, EC80 glutamate); type: cell-based; conditions: for %Glumin: efficacy of the NAM to reduce an EC80 response of glutamate
T1 construct: expressed in transfected cells
T1 sequence (P41594 21-1212): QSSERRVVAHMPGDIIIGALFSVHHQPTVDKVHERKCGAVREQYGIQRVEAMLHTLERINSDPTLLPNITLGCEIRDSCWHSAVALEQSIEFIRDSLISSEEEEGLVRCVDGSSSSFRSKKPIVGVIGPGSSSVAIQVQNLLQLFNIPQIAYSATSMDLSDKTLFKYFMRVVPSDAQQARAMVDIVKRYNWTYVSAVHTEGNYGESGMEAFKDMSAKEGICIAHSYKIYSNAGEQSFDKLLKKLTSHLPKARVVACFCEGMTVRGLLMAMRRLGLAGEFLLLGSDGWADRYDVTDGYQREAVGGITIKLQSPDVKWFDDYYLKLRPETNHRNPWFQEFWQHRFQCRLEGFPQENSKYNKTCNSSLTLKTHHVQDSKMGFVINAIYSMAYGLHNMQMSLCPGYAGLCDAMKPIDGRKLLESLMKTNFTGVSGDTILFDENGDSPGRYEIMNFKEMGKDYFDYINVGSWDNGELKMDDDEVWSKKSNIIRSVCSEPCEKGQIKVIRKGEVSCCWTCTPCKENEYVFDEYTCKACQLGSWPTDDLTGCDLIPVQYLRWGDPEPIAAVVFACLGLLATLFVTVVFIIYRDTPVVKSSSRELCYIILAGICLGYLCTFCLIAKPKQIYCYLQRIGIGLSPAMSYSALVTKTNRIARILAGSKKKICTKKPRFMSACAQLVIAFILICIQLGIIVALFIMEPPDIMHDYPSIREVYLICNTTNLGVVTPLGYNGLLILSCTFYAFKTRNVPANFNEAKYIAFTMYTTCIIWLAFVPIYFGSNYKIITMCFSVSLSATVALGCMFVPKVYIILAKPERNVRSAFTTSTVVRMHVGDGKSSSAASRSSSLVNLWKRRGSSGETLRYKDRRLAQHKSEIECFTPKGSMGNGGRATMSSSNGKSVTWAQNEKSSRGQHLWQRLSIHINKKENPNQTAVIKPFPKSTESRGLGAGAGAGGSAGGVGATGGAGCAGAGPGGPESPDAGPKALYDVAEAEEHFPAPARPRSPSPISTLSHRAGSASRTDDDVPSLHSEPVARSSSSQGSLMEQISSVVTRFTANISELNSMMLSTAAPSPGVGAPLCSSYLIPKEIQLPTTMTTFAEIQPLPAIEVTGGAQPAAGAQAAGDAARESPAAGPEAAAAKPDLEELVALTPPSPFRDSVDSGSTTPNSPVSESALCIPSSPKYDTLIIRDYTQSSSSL

[2] = Intrinsic clearance in rat liver microsomes; type: in vitro ADME; conditions: predicted hepatic clearance from in vitro rat microsomal data
Protocol: Intrinsic Clearance in Rat and Human Liver Microsomes
The in vitro intrinsic clearance (CL int) was investigated in commercially obtained hepatic microsomes from rat and human donors using the substrate depletion (i.e., loss-of-parent vs. time, or t 1/2 method) approach with analyte detection via liquid chromatography-tandem mass spectrometry (LC-MS/MS). For each species, mean %parent remaining values at each time point were calculated from replicates raw data (analyte:IS peak area ratios) and used to determine in vitro t 1/2 and CLint.
Experiments were carried out using a robot-assisted (TECAN model Evo 200). Compound was incubated (1 µM final concentration) in buffer (100 mM potassium phosphate pH 7.4 with 3 mM MgCl2) containing hepatic microsomes (0.5 mg/mL final concentration) from multiple species, discretely, at 37 °C under constant orbital shaking. After 5 minutes (pre-incubation), reactions were initiated by addition of nicotinamide adenine dinucleotide phosphate (NADPH, 1 mM final concentration). At selected time intervals (0, 3, 7, 15, 25, and 45 minutes) post-addition of NADPH, aliquots (50 µL) were taken and placed into a 96-shallow-well plate containing ice cold acetonitrile (150 µL) with carbamazepine (IS, 50 nM). The plates were then centrifuged (3000 rcf at 4 °C) for 10 minutes. The supernatants were transferred to a new 96-shallow-well daughter plate and diluted (1:1 v/v) with water (Milli-Q filtered). The plates were then sealed in preparation for LC-MS/MS analysis (see below).
Raw LC-MS/MS peak area data generated from the assay samples were used to construct natural log-transformed %parent remaining vs. time plots (using t = 0 minute post-NADPH addition sample data as starting point set to 100%). In vitro compound half-life (t 1/2) values were obtained using the following […]
k is the slope from linear regression analysis of the natural log-transformed data (using means from Where all replicates at each time point). Resulting t 1/2 values were then used to calculate hepatic CLint values according to the following equation and with the use of species-specific scale-up factors for liver weight (grams) per total body weight (kg):
CL = 0.693 x 1 mL incubation x 45 mg microsomes x a gram liver
int in vitro t1/2 0.5 mg microsomes 1 gram liver kg body wt aScale-up factors used are 45 (rat) and 20 (human).1
Predicted hepatic clearance (CLhep) was calculated using the following equation: […]
Qh represents hepatic blood flow (mL/min/kg): 21 for human, 70 for rat, and 90 for mouse.

[3] = Binding in plasma from human (equilibrium dialysis); type: in vitro ADME; conditions: fraction unbound
Protocol: Binding in plasma from rat and human.
Determination of compounds’ fraction unbound (f u) in plasma from rat and human was conducted in vitro via equilibrium dialysis using HTDialysis membrane plates. Dialysis membranes (four paired strips per HTD assay) were hydrated as described by the manufacturer and inserted into the HTD plate, which was assembled and prepared for sample addition by the dispensing of blank buffer (DPBS, 100 µL/well) into the ‘top half’ of each membrane-split well. Each compound was diluted into plasma from each species (5 µM final concentration), which was aliquoted in triplicate to the ‘bottom half’ of the prepared HTD plate wells. The HTD plate was sealed and incubated for 6 hours at 37 °C. Following incubation, each well (both top and bottom halves) were transferred (20 µL) to the corresponding wells of a 96-shallow-well (V-bottom) plate. The daughter plates were then matrix-matched (buffer side wells received equal volume of plasma, and plasma side wells received equal volume of buffer), and extraction solution (120 µL; acetonitrile containing 50 nM carbamazepine as IS) was added to all wells of both daughter plates to precipitate protein and extract test article. The plates were then sealed and centrifuged (3500 rcf) for 10 minutes at ambient temperature. Supernatant (60 µL) from each well of the daughter plates was then transferred to the corresponding wells of new daughter plates (96-shallow-well, V bottom) containing water (Milli-Q, 60 µL/well), and the plates were sealed in preparation for LC-MS/MS analysis (see below). fu was calculated as (analyte to IS MS peak area ratio from Trans-buffer side) / (analyte to IS MS peak area ratio from Cis-plasma side). Mean values for each species were calculated from 3 replicates. […]
Mean values for each species were calculated from 3 replicates.

[4] = design: method as in PMID 31589885; conditions: led to termination of trials; attributed to off-target MAO-B; cited from earlier work
[5] = literature, cited from earlier work
[6] = rat, cited from earlier work
[7] = design: method as in PMID 28530802; conditions: NHP, 28-day study, AO metabolite accumulated after 14 days, nonmechanism based; cited from earlier work
[8] = design: method as in PMID 30446311; conditions: cited from earlier work
[9] = cited from earlier work
[10] = molecular target: T1, human mGlu5; conditions: previously published picolinamide series; read-out: hmGlu5 IC50; cited from earlier work
[11] = tested on: M1; design: method as in PMID 37101980; conditions: cited from earlier work
[12] = human mGlu5-HEK293A cells, EC80 fixed concentration of glutamate, n = 2 in triplicate
[13] = human mGlu5-HEK293A cells, EC80 fixed concentration of glutamate, n = 2 in triplicate, read-out: IC50

Row | Structure (SMILES) | %Glumin ([1]; human mGlu5-HEK293A cells) [%] | pIC50 [1, 12] | IC50 [1, 13] [µM] | further results
1 | O=C(Nc1ccc(F)cn1)c1cc(O[C@@H]2CCOC2)c2sccc2n1 [19aB] | 2 | 7.22 | 0.061 | rat CLhep [2]: 55.1 mL/min/kg; human f u,plasma [3]: 0.008
2 | O=C(Nc1cccc(F)n1)c1cc(O[C@@H]2CCOC2)c2sccc2n1 [19aC] | 6 | 5.98 | 1.07 | IC50 ([1]; in μM, read-out: hmGlu5 IC50): 1.1 µM
3 | Cc1cccc(NC(=O)c2cc(O[C@@H]3CCOC3)c3sccc3n2)n1 [19aD] | 2 | 7.66 | 0.022 | rat CLhep [2]: 57.5 mL/min/kg; human f u,plasma [3]: 0.005
4 | Cc1cccc(NC(=O)c2cc(O[C@@H]3CCOC3)c3sccc3n2)c1 [19aE] | 2 | 6.08 | 0.845 | 
5 | Cc1nc(NC(=O)c2cc(O[C@@H]3CCOC3)c3sccc3n2)ccc1F [19aG] | 66 | < 5 | > 10 | 
6 | CCc1csc(NC(=O)c2cc(O[C@@H]3CCOC3)c3sccc3n2)n1 [19aH] | 6 | 5.62 | 2.56 | 
7 | O=C(Nc1nccs1)c1cc(O[C@@H]2CCOC2)c2sccc2n1 [19aK] | 3 | 5.75 | 1.83 | 
8 | O=C(Nc1nc(CF)cs1)c1cc(O[C@@H]2CCOC2)c2sccc2n1 [19aL] | 2 | 7.27 | 0.055 | rat CLhep [2]: 41.8 mL/min/kg; human f u,plasma [3]: 0.016
9 | O=C(Nc1nc(C(F)F)cs1)c1cc(O[C@@H]2CCOC2)c2sccc2n1 [19aM] | 18 | 6.50 | 0.32 | 
10 | N#Cc1csc(NC(=O)c2cc(O[C@@H]3CCOC3)c3sccc3n2)n1 [19aN] | 3 | 6.27 | 0.559 | 
11 | Cc1coc(NC(=O)c2cc(O[C@@H]3CCOC3)c3sccc3n2)n1 [19aP] | 50 | < 5 | > 10 | 
12 | Cc1nsc(NC(=O)c2cc(O[C@@H]3CCOC3)c3sccc3n2)n1 [19aQ] | 73 | < 5 | > 10 | 
13 | Cc1csc(NC(=O)c2cc(O[C@@H]3CCOC3)c3sc(C)cc3n2)n1 [19cA] | 2 | 6.45 | 0.357 | 
14 | Cc1cc2nc(C(=O)Nc3ccc(F)cn3)cc(O[C@@H]3CCOC3)c2s1 [19cB] |  |  |  | IC50 (nM) [1, 12]: inactive
15 | Cc1csc(NC(=O)c2cc(O[C@@H]3CCOC3)c3ccn(C)c3n2)n1 [19dA] | 2 | 7.04 | 0.093 | rat CLhep [2]: 52.3 mL/min/kg; human f u,plasma [3]: 0.006
16 | Cn1ccc2c(O[C@@H]3CCOC3)cc(C(=O)Nc3ccc(F)cn3)nc21 [19dB] | 12 | 5.98 | 1.06 | 
17 | Cn1ccc2nc(C(=O)Nc3ccc(F)cn3)cc(O[C@@H]3CCOC3)c21 [19eB] | 46 | < 5 | > 10 | 
18 | Cc1csc(NC(=O)c2cc(O[C@@H]3CCOC3)c3ccccc3n2)n1 [19fA] | 6 | 6.74 | 0.192 | 
19 | O=C(Nc1ccc(F)cn1)c1cc(O[C@@H]2CCOC2)c2ccccc2n1 [19fB] | 15 | 5.59 | 2.65 | 

Row | Structure (SMILES) | %Glumin ([1]; human mGlu5-HEK293A cells) [%] | pIC50 [1, 12] | IC50 [1, 13] [µM] | further results
20 | Cc1csc(NC(=O)c2cc(OC3CC(C)(C)OC3(C)C)c3sccc3n2)n1 (stereo not shown) [22b] |  |  |  | IC50 (nM) [1, 12]: inactive
21 | Cc1csc(NC(=O)c2cc(OC3CCOCC3)c3sccc3n2)n1 [22d] | 25 | < 5 | > 10 | 
22 | Cc1csc(NC(=O)c2cc(OC3COC3)c3sccc3n2)n1 [22e] | 2 | 6.76 | 0.185 | 
23 | CO[C@@H](C)COc1cc(C(=O)Nc2nc(C)cs2)nc2ccsc12 [22g] | 12 | 6.17 | 0.682 | 
24 | Cc1csc(NC(=O)c2cc(OC3CC(C#N)C3)c3sccc3n2)n1 (stereo not shown) [22i] |  |  |  | rat CLhep [2]: 48.2 mL/min/kg; human f u,plasma [3]: 0.005
25 | Cc1csc(NC(=O)c2cc(OC3CSC3)c3sccc3n2)n1 [22j] | 2 | 6.98 | 0.107 | rat CLhep [2]: 68.4 mL/min/kg; human f u,plasma [3]: 0.001
26 | Cc1csc(NC(=O)c2cc(O[C@@H]3CCOC3)cnn2)n1 [27aA] |  |  |  | IC50 (nM) [1, 12]: inactive
27 | O=C(Nc1ccc(F)cn1)c1cncc(O[C@@H]2CCOC2)c1 [27bB] |  |  |  | IC50 (nM) [1, 12]: inactive
28 | O=C(Nc1ccc(F)cn1)c1cc(O[C@@H]2CCOC2)cc(F)c1F [27cB] | 3 | 5.88 | 1.57 | IC50 ([1]; in μM, read-out: hmGlu5 IC50): 1.6 µM
29 | O=C(Nc1ccc(F)cn1)c1cc(O[C@@H]2CCOC2)ncn1 [27eB] |  |  |  | IC50 (nM) [1, 12]: inactive
30 | Cc1csc(NC(=O)c2cc(O[C@@H]3CCOC3)c3ccncc3n2)n1 [27gA] | 2 | 5.69 | 2.05 | IC50 ([1]; in μM, read-out: hmGlu5 IC50): 2.1 µM
31 | O=C(Nc1ccc(F)cn1)c1cc(O[C@@H]2CCOC2)c2ccncc2n1 [27gB] | 3 | 5.76 | 1.78 | 
32 | N#Cc1cc(F)cc(-c2nc(-c3ccc(F)cn3)no2)c1 [AZD9272] |  |  |  | adverse effect in clinical trials [4]: psychosis-like symptoms
33 | O=C(c1ccc(OC(F)F)c(C#Cc2ccccn2)c1)N1Cc2cccnc2C1 [GRN-529] |  |  |  | glutathione conjugation to the alkyne [5]: extensive glutathione conjugation; toxicology finding ([5]; nonhuman primates, 8-week regulatory toxicology study): biliary epithelial hyperplasia; also recorded: hepatotoxicity observed
34 | Cc1csc(NC(=O)c2cc(F)cc(Oc3cncnc3)c2)n1 [VU0409106] |  |  |  | %F ([6]; in vivo): < 5%
35 | Cc1cc(Oc2cncnc2)cc(C(=O)Nc2ccc(F)cn2)n1 [compound 10, N-(5-Fluoropyridin-2-yl)-6-methyl-4-(pyrimidin-5-yloxy)picolinamide] |  |  |  | toxicology finding [7]: pronounced anemia
36 | Cc1cc(O[C@@H]2CCOC2)cc(C(=O)Nc2ccc(F)cn2)n1 [compound 11] |  |  |  | predicted hepatic clearance in rat (CLhep) [8]: 51 mL/min/kg; oral bioavailability (%F) [6]: 5.5%; rat brain:plasma K p,uu [9]: 0.79; IC50 [10]: 22 nM
37 | O=C(NCc1ccc(F)cn1)c1cc(Oc2cccnc2)c2sccc2n1 [compound 13] |  |  |  | M1 PAM [11]: > 30 µM
38 | CN1CC(=O)N=C1NC(=O)Nc1cccc(Cl)c1 [fenobam] |  |  |  | adverse effect in clinical trials [4]: psychosis-like symptoms
